Here are results for 1 molecule from article PMC11129349, “Synthesis and Evaluation of a Novel PET Radioligand for Imaging Glutaminyl Cyclase Activity as a Biomarker for Detecting Alzheimer’s Disease” (ACS Sensors, 2024).

The assay addresses T1, glutaminyl cyclase (QC; human recombinant glutaminyl peptide cyclotransferase) (Homo sapiens, UniProt Q16769).
T1 construct: gene QPCT
Nature of the assay: PGPEP1-coupled fluorescence assay with H-Gln-AMC substrate, recombinant human QC. The format is biochemical.

T1 sequence (Q16769 29-361): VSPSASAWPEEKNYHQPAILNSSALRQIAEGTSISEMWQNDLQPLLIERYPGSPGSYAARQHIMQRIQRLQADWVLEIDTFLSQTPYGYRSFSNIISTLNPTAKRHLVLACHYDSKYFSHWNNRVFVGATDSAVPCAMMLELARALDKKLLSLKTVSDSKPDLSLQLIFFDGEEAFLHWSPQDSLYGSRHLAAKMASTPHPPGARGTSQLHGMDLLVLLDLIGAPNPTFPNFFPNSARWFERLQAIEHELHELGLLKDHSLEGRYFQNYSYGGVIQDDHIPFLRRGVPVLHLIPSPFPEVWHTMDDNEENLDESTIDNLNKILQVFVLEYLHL

Broadly, the IC50 is the midpoint of a concentration-inhibition curve. `O=C1NC[C@H](c2ccc(OCCCF)cc2)N1c1ccc2[nH]cnc2c1` [compound 8, S-[19F]PB0822]: the IC50 was 56.3 nM.
